# Experimental data from article PMC9898036, “VIP152 is a selective CDK9 inhibitor with pre-clinical in vitro and in vivo efficacy in chronic lymphocytic leukemia” (Leukemia, 2022).
# Like-named read-outs stand apart in the source and are kept apart here.
# Columns and labels:
# [1] = target: LRRK2 (Homo sapiens, UniProt Q5S007); assay: KINOMEscan: LRRK2; assay type: binding; settings: 1000 nM, read-out: Percent Control
# [2] = tested on: relapsed/refractory primary CLL samples; assay: Annexin V/propidium iodide flow cytometry; assay type: cell-based; settings: Homo sapiens; 8 BTKi/venetoclax relapsed/refractory samples; 24 h; read-out: IC50 (50% killing)
# [3] = target: CDK5 (Homo sapiens, UniProt Q00535); assay: KINOMEscan: CDK5; assay type: binding; settings: 1000 nM, read-out: Percent Control
# [4] = target: CSNK1A1 (Homo sapiens, UniProt P48729); assay: KINOMEscan: CSNK1A1; assay type: binding; settings: 1000 nM, read-out: Percent Control
# [5] = target: T1, α2B receptor (Homo sapiens, UniProt P18089); assay: Eurofins Diversity Panel: adrenergic α2B receptor; assay type: binding
# T1 construct: purchased Eurofins
# [6] = target: KIT(V559D) (Homo sapiens, UniProt P10721, V559D); assay: KINOMEscan: KIT(V559D); assay type: binding; settings: 1000 nM, read-out: Percent Control
# [7] = tested on: GABAA, Muscimol, Central; assay: Eurofins Diversity Panel; assay type: binding; settings: rat, Conc. 10 μM
# [8] = parameters: method as in PMID 35046056; settings: human, cited from earlier work
# [9] = target: IRAK4 (Homo sapiens, UniProt Q9NWZ3); assay: KINOMEscan: IRAK4; assay type: binding; settings: 1000 nM, read-out: Percent Control
# [10] = tested on: B-cells isolated from patients with treatment-naïve CLL; assay: Limiting-cell RNA sequencing (lcRNAseq); assay type: cell-based, human
# Experimental: CLL cells isolated from patients were sorted for CD5^+/CD19^+ into lysis buffer. Libraries were prepared and sequenced as previously described.
# P-TEFb’s role in regulating transcription through POLII CTD phosphorylation is a canonical function of this complex. To interrogate the transcriptional changes associated with VIP152 treatment, we treated B-cells, isolated from four patients with treatment-naïve CLL, with 1 µM VIP152 or DMSO for two hours followed by fluorescence-assisted cell sorting for 500 live (Sytox^−), CD45^+/CD5^+/CD19^+ cells (Fig. 3A). Our group has previously defined an analysis pipeline, named CLEAR, which identifies evenly distributed reads for differentially expressed gene (DEG) analysis. […] When we looked at the expression of these differentially abundant genes via an unsupervised clustered heatmap, we noted that there was high concordance between the patient samples with clustering dependent on treatment group (Fig. 3C). The treatment did induce decreased transcript abundance of genes previously reported to be controlled by CDK9 activity, namely JUNB, BTG1, and MCL1 [45, 46]. Downregulation of the anti-apoptotic MCL1 (LFC: −1.231056 & p-value = 0.02) likely contributes to the susceptibility of primary CLL cells to apoptosis (Fig. 2F, G). […] It has been established that AU-rich element (ARE) mRNA molecules are under tight temporal regulation and control a variety of cellular processes. Moreover, the relationship between P-TEFb mediated transcription and ARE-bearing mRNA has previously been described. […] We appreciate from our limiting-cell RNA sequencing experiments that the loss of tristetrapolin (ZFP36) transcripts (LFC: −4.02; adjusted p-value: 7.97*10^−40) and the upregulation of ribosomal transcripts, likely correspond to a possible compensatory mechanism by which these cells attempt to improve translational output and maximize transcript maintenance in response to VIP152-induced transcriptional shutdown. […] We looked at transcripts which had been shown by photoactivatable ribonucleoside cross-linking and immunoprecipitation (PAR-CLIP) to interact with ZFP36 [50]. […] Additionally, we chose to look at BCL2 transcript stability as ZFP36L1 has been shown in B cell lymphoma to negatively regulate BCL2 transcript stability. We performed an mRNA stability study on patient samples treated with VIP152 with Actinomycin-D and observed an increase in the half-lives of each of these transcripts including BCL2 (Fig. 3H–M).
# [11] = target: Adenosine A1 (Homo sapiens, UniProt P30542); assay: Eurofins Diversity Panel; assay type: binding; settings: hum, Conc. 10 μM
# [12] = target: TTK (Homo sapiens, UniProt P33981); assay: KINOMEscan: TTK; assay type: binding; settings: 100 nM, read-out: Percent Control
# [13] = target: Adrenergic α1A (Rattus norvegicus, UniProt P43140); assay: Eurofins Diversity Panel; assay type: binding; settings: Conc. 10 μM
# [14] = target: ABL1 (Homo sapiens, UniProt P00519, M351T); assay: KINOMEscan: ABL1; assay type: binding; settings: ABL1(M351T)-phosphorylated, read-out: Percent Control
# Experimental: The structure and synthesis of VIP152 were recently described by Lücking et al.. (Fig. 1A); however, the selectivity of the molecule in cellular systems has yet to be explored. […] We also performed this experiment at 1000 nM, where CDK9 was inhibited at 99%. […] We found a strong concordance between our data and those of Lücking when comparing the most inhibited kinases. Potential off-target effects of VIP152 were next tested in vitro at a concentration of 10 µM for off-target activity against a broad range of receptors, transporters, ion channels, and enzymes (n = 138) using the Eurofins Diversity Panel.
# Kinomescan Kinase Profiling Assay
# Kinomescan Assay was performed at DiscoverRX and described in Fabian, et al. 2005, Nat.
# Biotechnol. In brief, kinases were produced and subsequently tagged with DNA for qPCR detection.
# Streptavidin-coated magnetic beads were bound to biotinylated kinase ligands to serve as a solid support.
# VIP152 was dissolved in DMSO and tested across a 10 serial threefold dilution set and compared to a test compound and a DMSO control. Kinases which were inhibited by VIP152 would not be bound to the solid-support resulting in decreased substrate for the qPCR reaction. Kinome map was produced via TreeSpot Analysis from DiscoverRX. […]
# Chain of CDK5 (Q00535 whole entry): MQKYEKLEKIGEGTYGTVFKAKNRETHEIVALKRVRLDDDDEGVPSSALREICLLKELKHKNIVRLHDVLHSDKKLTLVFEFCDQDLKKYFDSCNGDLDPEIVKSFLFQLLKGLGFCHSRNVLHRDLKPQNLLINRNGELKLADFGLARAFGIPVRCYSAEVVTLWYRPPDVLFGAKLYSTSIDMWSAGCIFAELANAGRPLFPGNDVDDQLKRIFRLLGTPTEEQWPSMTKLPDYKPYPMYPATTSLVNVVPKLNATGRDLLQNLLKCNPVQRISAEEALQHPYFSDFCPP
# Chain of Adrenergic α1A (P43140 whole entry): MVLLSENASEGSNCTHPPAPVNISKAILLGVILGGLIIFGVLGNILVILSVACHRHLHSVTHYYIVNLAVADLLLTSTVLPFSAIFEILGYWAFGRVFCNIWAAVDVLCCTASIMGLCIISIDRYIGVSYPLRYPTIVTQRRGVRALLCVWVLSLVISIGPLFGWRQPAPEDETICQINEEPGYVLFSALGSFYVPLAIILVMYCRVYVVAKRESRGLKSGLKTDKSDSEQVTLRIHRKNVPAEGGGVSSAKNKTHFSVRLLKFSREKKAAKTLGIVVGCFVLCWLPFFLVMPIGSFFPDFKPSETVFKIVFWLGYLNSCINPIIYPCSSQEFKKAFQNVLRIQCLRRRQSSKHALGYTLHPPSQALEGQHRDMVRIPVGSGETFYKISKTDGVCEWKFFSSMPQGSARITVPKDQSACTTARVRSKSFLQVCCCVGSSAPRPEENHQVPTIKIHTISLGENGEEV
# Chain of IRAK4 (Q9NWZ3 whole entry): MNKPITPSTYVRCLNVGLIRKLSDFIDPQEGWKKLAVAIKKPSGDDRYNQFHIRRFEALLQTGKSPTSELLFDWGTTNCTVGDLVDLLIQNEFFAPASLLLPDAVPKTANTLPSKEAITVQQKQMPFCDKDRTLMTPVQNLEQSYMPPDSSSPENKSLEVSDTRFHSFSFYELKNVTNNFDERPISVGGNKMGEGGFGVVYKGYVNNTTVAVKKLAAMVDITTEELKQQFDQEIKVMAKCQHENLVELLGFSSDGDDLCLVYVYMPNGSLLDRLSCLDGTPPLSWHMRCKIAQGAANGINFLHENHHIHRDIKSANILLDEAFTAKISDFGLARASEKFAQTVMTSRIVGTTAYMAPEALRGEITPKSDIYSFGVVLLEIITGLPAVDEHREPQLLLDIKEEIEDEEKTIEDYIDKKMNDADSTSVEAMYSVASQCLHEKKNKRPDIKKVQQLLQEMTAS
# Chain of TTK (P33981 whole entry): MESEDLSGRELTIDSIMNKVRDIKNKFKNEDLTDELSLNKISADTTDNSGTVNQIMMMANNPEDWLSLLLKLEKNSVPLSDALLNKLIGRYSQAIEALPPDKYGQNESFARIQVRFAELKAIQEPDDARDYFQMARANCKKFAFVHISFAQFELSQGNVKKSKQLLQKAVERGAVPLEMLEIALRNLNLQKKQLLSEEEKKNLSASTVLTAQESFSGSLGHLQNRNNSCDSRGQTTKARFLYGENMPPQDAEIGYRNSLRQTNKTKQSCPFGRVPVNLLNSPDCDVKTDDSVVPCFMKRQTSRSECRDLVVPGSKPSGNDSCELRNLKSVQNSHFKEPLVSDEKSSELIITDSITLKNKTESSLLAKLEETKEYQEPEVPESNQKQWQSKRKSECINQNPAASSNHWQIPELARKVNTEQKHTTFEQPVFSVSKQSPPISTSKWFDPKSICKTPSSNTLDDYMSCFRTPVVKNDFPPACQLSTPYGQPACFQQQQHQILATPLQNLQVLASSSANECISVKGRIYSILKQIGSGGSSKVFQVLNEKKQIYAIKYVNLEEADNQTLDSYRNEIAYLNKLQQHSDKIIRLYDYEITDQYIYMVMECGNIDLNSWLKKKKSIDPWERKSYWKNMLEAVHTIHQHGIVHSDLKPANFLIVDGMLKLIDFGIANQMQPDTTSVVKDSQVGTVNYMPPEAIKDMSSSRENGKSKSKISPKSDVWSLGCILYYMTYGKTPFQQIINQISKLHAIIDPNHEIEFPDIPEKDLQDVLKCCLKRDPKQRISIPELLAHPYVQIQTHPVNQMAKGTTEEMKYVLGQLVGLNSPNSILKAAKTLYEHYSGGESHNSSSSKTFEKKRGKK
# Chain of KIT(V559D) (P10721 26-976 V559D): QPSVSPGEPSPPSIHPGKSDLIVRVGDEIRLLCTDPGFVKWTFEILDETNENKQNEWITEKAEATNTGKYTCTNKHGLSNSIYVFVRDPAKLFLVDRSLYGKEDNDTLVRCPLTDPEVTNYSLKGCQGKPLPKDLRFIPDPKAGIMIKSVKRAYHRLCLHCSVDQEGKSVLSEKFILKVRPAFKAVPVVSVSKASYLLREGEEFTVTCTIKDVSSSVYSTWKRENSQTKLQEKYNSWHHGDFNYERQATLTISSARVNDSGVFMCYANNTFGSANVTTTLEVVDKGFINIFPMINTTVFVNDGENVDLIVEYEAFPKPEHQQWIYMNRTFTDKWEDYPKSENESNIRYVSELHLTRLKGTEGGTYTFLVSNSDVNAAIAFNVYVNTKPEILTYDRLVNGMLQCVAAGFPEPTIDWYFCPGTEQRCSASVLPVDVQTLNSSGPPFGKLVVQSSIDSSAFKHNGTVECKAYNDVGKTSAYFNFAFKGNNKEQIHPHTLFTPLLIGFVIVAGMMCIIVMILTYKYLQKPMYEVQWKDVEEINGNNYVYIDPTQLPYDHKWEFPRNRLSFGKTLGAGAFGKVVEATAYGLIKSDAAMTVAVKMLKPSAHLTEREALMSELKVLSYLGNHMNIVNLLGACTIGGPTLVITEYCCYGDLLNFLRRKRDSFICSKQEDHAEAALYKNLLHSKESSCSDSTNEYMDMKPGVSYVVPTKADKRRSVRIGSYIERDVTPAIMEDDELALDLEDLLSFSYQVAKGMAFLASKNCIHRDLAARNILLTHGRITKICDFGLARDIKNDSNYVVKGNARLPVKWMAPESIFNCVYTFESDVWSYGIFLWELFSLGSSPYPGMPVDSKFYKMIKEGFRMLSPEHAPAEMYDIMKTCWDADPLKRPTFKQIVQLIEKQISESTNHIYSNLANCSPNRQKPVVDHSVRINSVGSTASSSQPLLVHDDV
# Chain of Adenosine A1 (P30542 whole entry): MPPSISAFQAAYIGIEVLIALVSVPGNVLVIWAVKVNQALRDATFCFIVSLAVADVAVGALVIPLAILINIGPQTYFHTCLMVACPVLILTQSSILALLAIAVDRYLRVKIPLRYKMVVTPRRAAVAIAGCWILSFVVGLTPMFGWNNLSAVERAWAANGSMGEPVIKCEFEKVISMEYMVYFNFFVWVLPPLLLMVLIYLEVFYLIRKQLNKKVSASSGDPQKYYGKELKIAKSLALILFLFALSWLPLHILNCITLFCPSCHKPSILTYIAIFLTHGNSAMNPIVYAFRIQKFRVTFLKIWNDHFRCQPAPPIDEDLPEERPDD
# T1 sequence (P18089 whole entry): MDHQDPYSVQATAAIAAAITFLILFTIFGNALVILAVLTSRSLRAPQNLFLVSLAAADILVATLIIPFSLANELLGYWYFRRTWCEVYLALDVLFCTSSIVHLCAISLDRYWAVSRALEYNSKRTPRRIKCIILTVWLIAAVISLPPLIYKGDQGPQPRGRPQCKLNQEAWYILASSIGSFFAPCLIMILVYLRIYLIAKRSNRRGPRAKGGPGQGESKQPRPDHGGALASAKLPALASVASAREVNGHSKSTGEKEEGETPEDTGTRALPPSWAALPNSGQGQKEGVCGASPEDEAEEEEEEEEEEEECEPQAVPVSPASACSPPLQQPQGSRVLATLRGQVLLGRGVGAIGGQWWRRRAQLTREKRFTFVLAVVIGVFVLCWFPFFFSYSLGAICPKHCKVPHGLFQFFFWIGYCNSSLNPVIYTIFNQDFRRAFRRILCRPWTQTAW
# Chain of CSNK1A1 (P48729 whole entry): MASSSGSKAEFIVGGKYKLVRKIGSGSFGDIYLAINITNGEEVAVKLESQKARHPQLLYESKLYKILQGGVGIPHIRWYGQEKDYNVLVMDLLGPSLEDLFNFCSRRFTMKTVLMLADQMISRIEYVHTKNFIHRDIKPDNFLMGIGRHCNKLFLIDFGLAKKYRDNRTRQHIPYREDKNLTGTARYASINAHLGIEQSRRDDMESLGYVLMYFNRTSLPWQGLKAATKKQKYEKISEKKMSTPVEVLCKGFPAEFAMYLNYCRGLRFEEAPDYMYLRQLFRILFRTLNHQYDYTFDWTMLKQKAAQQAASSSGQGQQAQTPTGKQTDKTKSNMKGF
compound,measurement,setting,value
COc1cc(F)ccc1-c1cc(Nc2cc(CS(C)(=N)=O)ccn2)ncc1F (stereo not shown) [VIP152],remaining binding at 1 µM,[1],50%
same,IC50,[2],~1000 nM
same,remaining binding at 1 µM,[3],83%
same,remaining binding at 1 µM,[4],95%
same,IC50,[5],1180 nM
same,remaining binding at 1 µM,[6],82%
same,% Inh.,[7],-3%
same,Cmax,[8],836 µg/L
same,Cmax,"[8]; read-out: Cmax, corresponding concentration",2000 nM
same,remaining binding at 1 µM,[9],78%
same,MCL1 transcript LFC,"[10]; 1 µM, two hours vs DMSO",−1.231
same,ZFP36 transcript LFC,"[10]; 1 µM, two hours vs DMSO",−4.02
same,log2FoldChange A1BG,[10]; VIP152 2hr vs DMSO 2hr,0.4323
same,log2FoldChange A1BG-AS1,[10]; VIP152 2hr vs DMSO 2hr,0.777
same,log2FoldChange AAAS,[10]; VIP152 2hr vs DMSO 2hr,0.1502
same,log2FoldChange AAGAB,[10]; VIP152 2hr vs DMSO 2hr,0.6327
same,log2FoldChange AAMDC,[10]; VIP152 2hr vs DMSO 2hr,0.4489
same,inhibition at 10 µM,[11],4%
same,remaining binding at 0.1 µM,[12],95%
same,inhibition at 10 µM,[13],34%
same,remaining binding at 0.1 µM,[14]; 100 nM,86%
same,remaining binding at 1 µM,[14]; 1000 nM,43%
